Laboratory results as given in patent publication US12385839B2, “Use of protein in predicting drug properties” (priority 2021, dated 2025).
Like-named read-outs stand apart in the source and are kept apart here.

Experiments:
[1] = cited from earlier work; for LD50: modelling table; for Toxicity: toxicity grade by LD50, trailing figure = number of pesticides in group
[2] = target: T1, human serum albumin (HSA) (Homo sapiens, UniProt P02768); assay: Circular dichroism spectrum, secondary structure (α-helix content) of HSA; conditions: HSA 2×10^−6 M
T1 sequence (P02768 25-609): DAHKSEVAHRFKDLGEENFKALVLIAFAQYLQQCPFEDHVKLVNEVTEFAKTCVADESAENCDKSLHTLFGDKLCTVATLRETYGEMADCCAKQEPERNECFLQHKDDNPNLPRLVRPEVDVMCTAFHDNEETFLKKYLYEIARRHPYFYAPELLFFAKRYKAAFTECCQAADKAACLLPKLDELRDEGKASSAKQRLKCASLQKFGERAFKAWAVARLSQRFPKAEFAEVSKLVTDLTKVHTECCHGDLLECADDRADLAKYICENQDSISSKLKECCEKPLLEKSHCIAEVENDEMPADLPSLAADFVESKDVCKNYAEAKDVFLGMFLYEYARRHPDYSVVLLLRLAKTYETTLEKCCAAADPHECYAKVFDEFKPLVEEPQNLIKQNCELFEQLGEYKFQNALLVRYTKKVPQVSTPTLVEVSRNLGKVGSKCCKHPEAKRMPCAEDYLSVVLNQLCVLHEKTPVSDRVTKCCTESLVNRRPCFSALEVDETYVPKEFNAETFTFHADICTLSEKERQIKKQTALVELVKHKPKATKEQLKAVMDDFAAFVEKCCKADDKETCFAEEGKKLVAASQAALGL
Description: the mixed solution to be tested was preheated at […] for 2-5 minutes, and the CD spectrum of HSA was recorded in the wavelength range of 200-500 nm . The concentration of HSA was kept at 2×10^−6 M, and the pesticide was (0-20)×10^−6 m. Firstly, HSA was measured, and then the ratio of HSA to pesticides needed to be determined specifically, which was preliminarily determined according to the ratio of 1:1, 1:2 and 1:3.
According to the following equation, the result of CD spectrum was usually expressed as the mean residue ellipticity (MRE), and the unit was deg·cm^2·dmol^−1. MRE=ObservedCD(mdeg)/(10Cpnl) (9);
in which Cp is the molar concentration of protein, n is the number (585) of amino acid residues, and 1 is the path length (1 mm). The α helicity of free and bound HSA is calculated from MRE values using the following formula: α−Helix(%)=[(−MRE208−4000)×100]/(33000-4000) (10)
in which the MRE208 is the MRE value observed at 208 nm , 4000 is the MRE value of random coil conformation at 208 nm , and […] is the MRE value of pure α helix at 208 nm .

[3] = target: T1, human serum albumin (HSA); assay: Fluorescence emission spectrum (quenching) of HSA with carbamate pesticides; assay type: binding; conditions: for Kq / Ksv / n (number of binding sites) / Kd / Ka (binding constant): pH 7.4; for R (binding distance): Förster energy transfer; for fluorescence of HSA quenched by pesticide: titration of pesticide; for ΔH^0 / ΔS^0: Van't Hoff, 296-310 K
Description: the mixed solution to be tested was preheated at […] for 3 minutes, and the emission spectrum of HSA with carbamate pesticides was measured at 300-500 nm . The excitation wavelength was set at 280 nm , and the slit width for both excitation and emission was 15 nm; the HSA concentration was kept constant at 5×10^−7 M, and the pesticide concentration was (0-105)×10^−7 M.
The internal filtering effect of fluorescence signal was corrected according to the following formula: Fcor=Fobsexp[(Aex+Aem)/2] (1);
in this formula, Fcor and Fobs represent corrected fluorescence signal and observed fluorescence signal, respectively, and Aex and Aem represent absorbance of the mixed solution to be tested at excitation wavelength and emission wavelengths, respectively; the quenching constant, number of binding sites, binding constant, free energy and binding distance of different drugs were obtained by fluorescence emission spectra, and a BP neural network model was obtained. Specifically, they were obtained as follows:
There is a linear relationship between F0/F and [Q] to distinguish whether it is static quenching or dynamic quenching. The fluorescence quenching data are analyzed by Stern-Volmer equation to clarify the quenching mechanism: F0/F=1+KSV[Q]=1+Kqτ0[Q] (2);
in the formula, F0 and F are fluorescence signals […] quencher, respectively. Ksv is Stern-Volmer quenching constant; Kq is a quenching rate constant of biomolecules; τ0 is the average lifetime of biomolecules without quencher (about 10^−8 s); [Q] is the concentration of quencher.
The maximum dynamic quenching rate constant of all kinds of quenchers on polymers was 2.0×10^10 L·mol^−1·s^−1. Static quenching and dynamic quenching could be judged according to this value. If K^q was greater than 2.0×10^10 L·mol^−1·s^−1, it belonged to static quenching. Otherwise, it belonged to dynamic quenching.
In this part, the binding sites and binding constants between carbamate pesticides and HSA were calculated. The following formula was used to calculate the number of binding sites (n) and the binding constant (Ka) of carbamate pesticides and HSA: log[(F0−F)/F]=log Ka+nlog[Q] (3);
The interactions between biological molecules and drug molecules were weak intermolecular interactions, including hydrogen bonds, van der Waals forces, electrostatic forces and hydrophobic interactions. By using Van't Hoff equation, the thermodynamic constants of drug-protein interaction were obtained, and the main types of drug-protein interaction were judged according to the changes of binding constants under different conditions. LnK=−ΔH^0/RT+ΔS^0/R (4); ΔG^0=ΔH^0−TΔS^0 (5);
There is a relationship among energy transfer efficiency E, distance r between energy donor and energy receptor and energy transfer distance R0. E=1−F/F0=R0^6/(R0^6+r^6) (6);
E represents the transfer efficiency between donor and receptor, r is the average distance between donor and receptor, and R0 is the critical distance when the transfer efficiency is 50%. R0^6=8.79×10^−K^2N^−4φJ (7)
K^2 is the orientation related to the geometry of donor and receptor of dipole. For random orientation in fluid, K^2=2/3; N is the average refractive index of the medium in the wavelength range with obvious spectral overlap, and the refractive index of water and organic matter is 1.336; φ is the quantum yield of donor, and the quantum yield of tryptophan in HSA is about 0.118; J represents the influence of spectral overlap between the emission spectrum of the donor and the absorption spectrum of the receptor, and can be calculated by the following formula: j=ΣF(λ)ϵ(λ)λ^4Δλ/ΣF(λ) Δλ (8);
F(λ) is the corrected fluorescence signal of the donor in the wavelength range from λ to (λ+Δλ), while ϵ(λ) is the extinction coefficient of the receptor at λ.

[4] = 296 K, read-out: Ka (binding constant)
[5] = 303 K, read-out: Ka (binding constant)
[6] = 310 K, read-out: Ka (binding constant)

| Molecule | LD50 [1] | Toxicity [1] | α-helix contents ([2]; 5:1 (Pesticide:HSA)) | α-helix contents ([2]; 10:1 (Pesticide:HSA)) | Ksv (37°) ([3]; 37°, modelling table) | ΔG(37°) ([3]; 37°, modelling table) | ΔG^0 ([3]; 296 K) | Kq ([3]; 296 K) | Ksv ([3]; 296 K) | n (number of binding sites) ([3]; 296 K) | ΔG^0 ([3]; 303 K) | Kq ([3]; 303 K) | Ksv ([3]; 303 K) | n (number of binding sites) ([3]; 303 K) | ΔG^0 ([3]; 310 K) | R (binding distance) ([3]; 310 K) | Kq ([3]; 310 K) | Ksv ([3]; 310 K) | n (number of binding sites) ([3]; 310 K) | fluorescence of HSA quenched by pesticide ([3]; 310 K) | further results |
| --- | --- | --- | --- | --- | --- | --- | --- | --- | --- | --- | --- | --- | --- | --- | --- | --- | --- | --- | --- | --- | --- |
| CNC(=O)O/N=C(\C)C(C)S(C)(=O)=O (stereo not shown) [Butoxycarboxim, butoxycarboxim] | 458 mg/kg | Moderately | 53.753% | 52.790% | 62644.83638 | −20.24 | -3.7366 kcal/mol | 2.888 ± 0.064 10^12 M^−1s^−1 | 2.888 ± 0.064 10^4 M^−1 | 0.658 ± 0.002 | -4.2875 kcal/mol | 4.798 ± 0.112 10^12 M^−1s^−1 | 4.798 ± 0.112 10^4 M^−1 | 0.679 ± 0.002 | -4.8384 kcal/mol | 1.964 nm | 6.264 ± 0.074 10^12 M^−1s^−1 | 6.264 ± 0.074 10^4 M^−1 | 0.725 ± 0.001 | quenched | Kd [3, 4]: 1720 µM; Kd [3, 5]: 832 µM; Kd [3, 6]: 382 µM; ΔH^0 [3]: 19.556 kcal/mol; ΔS^0 [3]: 329.251 J · mol^−1 · K^−1; Binding distance/r ([3]; modelling table): 1.964; Number of binding sites/n ([3]; modelling table): 0.725 |
| CNC(=O)O/N=C(\SC)C(=O)N(C)C [Oxamyl, oxamyl] | 2.5 mg/kg | Highly | 50.883% | 49.354% | 66054.55780 | −22.83 | -4.8592 kcal/mol | 5.229 ± 0.185 10^12 M^−1s^−1 | 5.229 ± 0.185 10^4 M^−1 | 0.774 ± 0.016 | -5.158 kcal/mol | 5.735 ± 0.073 10^12 M^−1s^−1 | 5.735 ± 0.073 10^4 M^−1 | 0.789 ± 0.004 | -5.4567 kcal/mol | 2.564 nm | 6.605 ± 0.058 10^12 M^−1s^−1 | 6.605 ± 0.058 10^4 M^−1 | 0.807 ± 0.003 | quenched | Kd [3, 4]: 255 µM; Kd [3, 5]: 195 µM; Kd [3, 6]: 141 µM; ΔH^0 [3]: 7.7713 kcal/mol; ΔS^0 [3]: 178.534 J · mol^−1 · K^−1; Binding distance/r ([3]; modelling table): 2.564; Number of binding sites/n ([3]; modelling table): 0.8074 |
| Trimethacarb | 178 mg/kg | Moderately | 52.233% | 48.283% | 47778.50539 | −19.26 | -4.0289 kcal/mol | 3.043 ± 0.160 10^12 M^−1s^−1 | 3.043 ± 0.160 10^4 M^−1 | 0.694 ± 0.002 | -4.3162 kcal/mol | 4.204 ± 0.100 10^12 M^−1s^−1 | 4.204 ± 0.100 10^4 M^−1 | 0.696 ± 0.005 | -4.6037 kcal/mol | 2.954 nm | 4.778 ± 0.093 10^12 M^−1s^−1 | 4.778 ± 0.093 10^4 M^−1 | 0.713 ± 0.001 | quenched | Ka (37°) ([3]; 37°, modelling table): 1782; Ka (binding constant) ([3]; 296 K): (9.546 ± 0.118) × 10^2 M^−1; Ka (binding constant) ([3]; 303 K): (1.268 ± 0.092) × 10^3 M^−1; Ka (binding constant) ([3]; 310 K): (1.782 ± 0.036) × 10^3 M^−1; ΔH^0 [3]: 8.1233 kcal/mol; ΔS^0 [3]: 171.775 J · mol^−1 · K^−1; Binding distance/r ([3]; modelling table): 2.954; Number of binding sites/n ([3]; modelling table): 0.713 |
| CNC(=O)Oc1cccc(C)c1 [Metolcarb, metolcarb] | 268 mg/kg | Moderately | 53.549% | 53.215% | 44415.60221 | −16.22 | -3.1766 kcal/mol | 3.261 ± 0.020 10^12 M^−1s^−1 | 3.261 ± 0.020 10^4 M^−1 | 0.564 ± 0.012 | -3.5268 kcal/mol | 3.415 ± 0.159 10^12 M^−1s^−1 | 3.415 ± 0.159 10^4 M^−1 | 0.587 ± 0.001 | -3.8772 kcal/mol | 2.525 nm | 4.442 ± 0.118 10^12 M^−1s^−1 | 4.442 ± 0.118 10^4 M^−1 | 0.616 ± 0.003 | quenched | Kd ([3]; Ka (binding constant), 296 K): 4450 µM; Kd ([3]; Ka (binding constant), 303 K): 2950 µM; Kd ([3]; Ka (binding constant), 310 K): 1820 µM; ΔH^0 [3]: 11.633 kcal/mol; ΔS^0 [3]: 209.338 J · mol^−1 · K^−1; Binding distance/r ([3]; modelling table): 2.525; Number of binding sites/n ([3]; modelling table): 0.6156 |
| CNC(=O)Oc1cccc2c1OC(C)(C)C2 [Carbofuran, carbofuran] | 5 mg/kg | Highly | 51.483% | 48.304% | 87696.31575 | −25.15 | -5.0459 kcal/mol | 5.563 ± 0.123 10^12 M^−1s^−1 | 5.563 ± 0.123 10^4 M^−1 | 0.797 ± 0.002 | -5.5287 kcal/mol | 7.239 ± 0.082 10^12 M^−1s^−1 | 7.239 ± 0.082 10^4 M^−1 | 0.822 ± 0.002 | -6.0117 kcal/mol | 1.938 nm | 8.770 ± 0.088 10^12 M^−1s^−1 | 8.770 ± 0.088 10^4 M^−1 | 0.862 ± 0.002 | quenched | Kd ([3]; Ka (binding constant), 296 K): 185 µM; Kd ([3]; Ka (binding constant), 303 K): 107 µM; Kd ([3]; Ka (binding constant), 310 K): 56.7 µM; ΔH^0 [3]: 15.374 kcal/mol; ΔS^0 [3]: 288.639 J · mol^−1 · K^−1; Binding distance/r ([3]; modelling table): 1.938; Number of binding sites/n ([3]; modelling table): 0.8616 |
